{"source": "paper PMC8585947", "about": "“Structure of Escherichia coli cytochrome bd-II type oxidase with bound aurachin D” (Nature Communications, 2021)", "key": {"[1]": {"target": "T1, cytochrome bd-II oxidase subunit AppC (Escherichia coli, UniProt P26459)", "T1 construct": "bd-II oxidase (AppC, AppB, AppX), C-terminal His-tag on AppC; with AppB, AppX", "assay": "duroquinol:O2 oxidoreductase inhibition (Clark electrode)", "assay_type": "biochemical"}, "[2]": {"target": "cytochrome bd-II oxidase subunit AppC (Escherichia coli, UniProt P26459, D239N)", "sequence (P26459 whole entry, stated change not applied)": "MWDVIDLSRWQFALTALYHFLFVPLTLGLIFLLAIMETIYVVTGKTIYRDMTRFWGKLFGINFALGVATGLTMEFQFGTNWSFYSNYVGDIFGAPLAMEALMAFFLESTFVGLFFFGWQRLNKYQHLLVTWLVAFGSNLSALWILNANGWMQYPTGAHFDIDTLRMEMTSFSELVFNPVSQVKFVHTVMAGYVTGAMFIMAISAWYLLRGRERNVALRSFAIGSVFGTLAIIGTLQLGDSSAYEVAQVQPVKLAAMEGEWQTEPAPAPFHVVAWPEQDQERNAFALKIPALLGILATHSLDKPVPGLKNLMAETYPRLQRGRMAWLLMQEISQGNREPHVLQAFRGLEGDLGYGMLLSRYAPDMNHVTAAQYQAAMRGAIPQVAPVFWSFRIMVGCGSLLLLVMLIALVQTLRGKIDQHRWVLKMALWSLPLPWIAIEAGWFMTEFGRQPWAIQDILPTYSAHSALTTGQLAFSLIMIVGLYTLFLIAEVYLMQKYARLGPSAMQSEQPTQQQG", "sequence (P24244 whole entry, further chain)": "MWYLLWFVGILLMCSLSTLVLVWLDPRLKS", "sequence (P26458 whole entry, further chain)": "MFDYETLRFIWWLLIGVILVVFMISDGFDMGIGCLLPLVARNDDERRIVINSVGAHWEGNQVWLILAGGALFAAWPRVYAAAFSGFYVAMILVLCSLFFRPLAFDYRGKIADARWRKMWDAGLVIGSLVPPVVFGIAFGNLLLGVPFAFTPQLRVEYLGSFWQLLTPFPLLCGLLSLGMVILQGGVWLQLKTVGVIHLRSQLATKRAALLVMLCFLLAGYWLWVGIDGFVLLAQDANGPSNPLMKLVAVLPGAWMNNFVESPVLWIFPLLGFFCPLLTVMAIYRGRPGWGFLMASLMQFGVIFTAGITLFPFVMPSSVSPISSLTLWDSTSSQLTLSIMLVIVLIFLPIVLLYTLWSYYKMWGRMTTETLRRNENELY", "assay": "biochemical"}, "[3]": {"target": "T1, cytochrome bd-II oxidase subunit AppC", "assay": "duroquinol:O2 oxidoreductase activity of isolated bd-II, Clark-type oxygen electrode", "assay_type": "biochemical"}, "[4]": {"target": "cytochrome bd-II oxidase subunit AppB (Escherichia coli, UniProt P26458)", "sequence (P26458 whole entry)": "as the sequence (P26458 whole entry, further chain) above", "sequence (P26459 whole entry partner)": "as the sequence (P26459 whole entry, stated change not applied) above", "sequence (P24244 whole entry partner)": "as the sequence (P24244 whole entry, further chain) above"}}, "note": "pIC50: −log10 of the molar value."}
{"smiles": "CC(C)=CCC/C(C)=C/CC/C(C)=C\\Cc1c(C)[nH]c2ccccc2c1=O", "note": "[aurachin D]", "values": [{"measurement": "pIC50", "setting": "[1]", "value": 7.95}, {"measurement": "pIC50", "setting": "[2]", "value": 7.22}]}
{"smiles": "CC(C)=CCC/C(C)=C/CC/C(C)=C/Cc1c(C)n(O)c2ccccc2c1=O", "note": "[aurachin C]", "values": [{"measurement": "pIC50", "setting": "[3]", "value": 8.15}]}
{"smiles": "COC1=C(OC)C(=O)C(C/C=C(\\C)CC/C=C(\\C)CC/C=C(\\C)CC/C=C(\\C)CC/C=C(\\C)CC/C=C(\\C)CC/C=C(\\C)CCC=C(C)C)=C(C)C1=O", "note": "[ubiquinone-8]", "values": [{"measurement": "cryo-EM structure at 3.0 Å", "setting": "[4]", "value": "cleft towards the periplasmic space filled with an extended electron density that was perfectly fitted as ubiquinone-8"}]}
